The source of these data is paper PMC9947975, “Design, Synthesis, and Biological Evaluation Studies of Novel Naphthalene-Chalcone Hybrids As Antimicrobial, Anticandidal, Anticancer, and VEGFR-2 Inhibitors” (ACS Omega, 2023).

Data set [1] deals with healthy mouse fibroblast cell (NIH3T3). The data set can be described thus: MTT cytotoxicity test on healthy cells. Type of data set: cell-based. Particulars: 24-h treatment, means of quartet assays ± SEM. The procedure:
(§1) The MTT test was performed using 3 different cell lines for calculated IC50 values of obtained compounds. […] For this purpose, the cytotoxic effects of the compounds against the healthy mouse fibroblast cell (NIH3T3) were investigated.
(§2) The 3-(4,5-dimethylthiazol-2-yl)-2,5-diphenyltetrazolium salt reduction method, or MTT assay, is used to measure the metabolic activity of live cells. […] Doxorubicin is used as a therapeutic drug. MTT assays were carried out as previously explained.[19]

In data set [2] the test system is S. epidermidis (ATCC 12228). The data set can be described thus: Antibacterial activity, MIC50 by resazurin fluorometric measurement. Particulars: Staphylococcus epidermidis, ATCC12228, means of triplicate assays; read-out: MIC50 S. epidermis. The class given is cell-based, Staphylococcus epidermidis. The method, then: (§3) Obtained compounds (2a–2j) were evaluated for antibacterial activity against Escherichia coli (E. coli) (ATCC 25922), Pseudomonas aeruginosa (P. aeruginosa) (ATCC 27853), […] (E. faecalis) (ATCC 2942), Bacillus subtilis (B. subtilis) (ATCC 6051), Staphylococcus aureus (S. aureus) (ATCC 29213), and Staphylococcus epidermidis (S. epidermidis) (ATCC 12228). MIC50 values were determined via fluorometric measurements, using resazurin solution.[13] Azithromycin was used as a standard drug in the antibacterial activity test.
(§4) The antimicrobial activity of obtained derivatives (2a–2j) was screened on six bacterial and three fungal strains according to the standard procedure of CLSI[20] as described in the previous study.[21] The antibacterial activities of the obtained compounds were screened against B. subtilis (ATCC 6051), E. coli (ATCC 25922), E. faecalis (ATCC 2942), P. aeruginosa (ATCC 27853), S. aureus (ATCC 29213), and S. epidermidis (ATCC 12228). The obtained compounds were evaluated for anticandidal activity against C. albicans (ATCC 24433), C. krusei (ATCC 6258), and C. parapsilopsis (ATCC 22019). For antibacterial activity, azithromycin was utilized as a reference drug, whereas voriconazole and fluconazole were used for anticandidal activity.

In data set [3] the test system is C. parapsilopsis (ATCC 22019). The experiment in a line: Anticandidal activity, MIC50 by resazurin fluorometric measurement. Type of data set: cell-based, Candida parapsilopsis. Particulars: Candida, ATCC22019; means of triplicate assays. The method, then:
(§5) Obtained compounds (2a–2j) were evaluated for anticandidal activity against Candida albicans (C. albicans) (ATCC 24433), Candida krusei (C. krusei) (ATCC 6258), and Candida parapsilopsis (C. parapsilopsis) (ATCC 22019). MIC50 values were determined via fluorometric measurements, using resazurin solution.[13] Voriconazole and fluconazole were used as a standard drug in the anticandidal activity test. […] In general, it is seen that the 2-methoxyethyl substituent increases the anticandidal activity.
as §4
A general note: Alamar Blue is a resazurin reagent that responds to reducing activity.

Another data set concerns E. faecalis (ATCC 2942). The data set can be described thus: Antibacterial activity, MIC50 by resazurin fluorometric measurement. Type of data set: cell-based, Enterococcus faecalis. Particulars: Enterococcus faecalis, ATCC2942, means of triplicate assays. The procedure: as §3, §4
Another data set relates to A549 cell line. The experiment in a line: MTT cytotoxicity test. Particulars: Homo sapiens, A549, 24 h, MTT, 24-h treatment, means of quartet assays ± SEM. Type of data set: cell-based. The procedure:
as §1, §2
A general note: Tetrazolium assays rely on reduction of a dye to a coloured formazan, in cell work by metabolically active cells.

The test system of another data set is HepG2 cell line. The data set can be described thus: MTT cytotoxicity test. The class given is cell-based. Particulars: Homo sapiens, 24-h treatment, means of quartet assays ± SEM. The procedure: as §1, §2
For data set [4], the system named is P. aeruginosa (ATCC 27853). The experiment in a line: Antibacterial activity, MIC50 by resazurin fluorometric measurement. The class given is cell-based. Particulars: Pseudomonas aeruginosa, ATCC27853; means of triplicate assays. The method, then: as §3, §4
The subject of a further data set is B. subtilis (ATCC 6051). Described as above. The following applies: Bacillus subtilis, ATCC6051; means of triplicate assays. Type of data set: cell-based. The procedure:
as §3, §4

In the next data set the test system is E. coli (ATCC 25922). The description is as above. Type of data set: cell-based. Particulars: Escherichia coli, ATCC25922; means of triplicate assays. The method, then:
as §3, §4

The next data set concerns C. krusei (ATCC 6258). The data set can be described thus: Anticandidal activity, MIC50 by resazurin fluorometric measurement. The class given is cell-based, Candida krusei. Particulars: Pichia kudriavzevii, ATCC6258, means of triplicate assays. The method, then: as §5, §4
The test system of another data set is C. albicans (ATCC 24433). The experiment in a line: Anticandidal activity, MIC50 by resazurin fluorometric measurement. Type of data set: cell-based, Candida albicans. Particulars: Candida albicans, ATCC24433, means of triplicate assays. The procedure: as §5, §4
The next data set deals with S. aureus (ATCC 29213). The experiment in a line: Antibacterial activity, MIC50 by resazurin fluorometric measurement. The class given is cell-based, Staphylococcus aureus. Particulars: Staphylococcus aureus, ATCC29213, means of triplicate assays. The procedure: as §3, §4

Structures are written as SMILES. In brackets after ≈: the same amount, converted by molar mass.

The IC50 is the concentration at which inhibition is half-maximal. Read a low IC50 as greater potency in that assay. One may read the MIC50 as an inhibitory concentration at the 50% level, which refers to growth in some studies and to a panel of isolates in others. The term melting point denotes the temperature, or range, at which the solid turns liquid.

In turn, `CCN1CCN(c2ccc(C(=O)C=Cc3ccc4ccccc4c3)cc2)CC1` [2g, 1-(4-(4-Ethylpiperazin-1-yl)phenyl)-3-(naphthalen-2-yl)prop-2-en-1-one] gave a melting point of 196.5 to 198 °C. The IC50 in [1] is 52.4 ± 2.57 µM. For the same molecule, the MIC50 in [2] came out at 62.5 µg/mL (≈ 169 µM). This molecule also returned an MIC50 in [3] above 100 µg/mL. This molecule also registered an MIC50 with E. faecalis (ATCC 2942) of 31.3 µg/mL (≈ 84.5 µM). This molecule had an IC50 in the data set with A549 cell line of 39.1 ± 1.24 µM. Further, it took 35.6 ± 0.98 µM to reach half-maximal inhibition in the data set with HepG2 cell line (IC50). This molecule showed an MIC50 in [4] above 100 µg/mL. Besides, the MIC50 with B. subtilis (ATCC 6051) was above 100 µg/mL. The MIC50 in the data set on E. coli (ATCC 25922) is above 100 µg/mL. The MIC50 against C. krusei (ATCC 6258) was above 100 µg/mL. In the data set with C. albicans (ATCC 24433), this molecule gave an MIC50 of 31.3 µg/mL (≈ 84.5 µM). This molecule returned an MIC50 in the data set with S. aureus (ATCC 29213) above 100 µg/mL.
`CC(C)N1CCN(c2ccc(C(=O)C=Cc3ccc4ccccc4c3)cc2)CC1` [2h, 1-(4-(4-Isopropylpiperazin-1-yl)phenyl)-3-(naphthalen-2-yl)prop-2-en-1-one] registered a melting point of 213.3 to 214.9 °C. The IC50 in data set [1] came to 66.5 ± 0.98 µM. Besides, the MIC50 in data set [2] is 62.5 µg/mL (≈ 163 µM). In addition, the MIC50 in data set [3] is above 100 µg/mL. This molecule gave an MIC50 against E. faecalis (ATCC 2942) of 31.3 µg/mL (≈ 81.4 µM). Besides, the concentration for half-maximal inhibition (IC50) in the data set with A549 cell line turned out to be 41.3 ± 1.5 µM. The IC50 in the data set with HepG2 cell line amounted to 46.3 ± 1.25 µM. The molecule further returned an MIC50 in data set [4] above 100 µg/mL. For the same molecule, the MIC50 against B. subtilis (ATCC 6051) is above 100 µg/mL. Besides, the MIC50 against E. coli (ATCC 25922) is above 100 µg/mL. Further, the MIC50 against C. krusei (ATCC 6258) was above 100 µg/mL. Moreover, the MIC50 against C. albicans (ATCC 24433) came out at 31.3 µg/mL (≈ 81.4 µM). The molecule also returned an MIC50 against S. aureus (ATCC 29213) above 100 µg/mL.
`C=CCN1CCN(c2ccc(C(=O)C=Cc3ccc4ccccc4c3)cc2)CC1` [2i, 1-(4-(4-Allylpiperazin-1-yl)phenyl)-3-(naphthalen-2-yl)prop-2-en-1-one] displayed a melting point of 186.9 to 188.8 °C. The molecule also registered an IC50 in data set [1] above 100 µM. Moreover, the MIC50 in data set [2] is 31.3 µg/mL (≈ 81.8 µM). Also, in data set [3], the MIC50 is above 100 µg/mL. Besides, the MIC50 in the data set with E. faecalis (ATCC 2942) turned out to be 31.3 µg/mL (≈ 81.8 µM). Moreover, half-maximal inhibition in the data set with A549 cell line (IC50) required 21.4 ± 2.56 µM. Moreover, the IC50 in the data set on HepG2 cell line was found to be 97.1 ± 4.94 µM. The MIC50 in data set [4] is above 100 µg/mL. The molecule also came in with an MIC50 with B. subtilis (ATCC 6051) above 100 µg/mL. This molecule also yielded an MIC50 in the data set on E. coli (ATCC 25922) above 100 µg/mL. The MIC50 in the data set with C. krusei (ATCC 6258) is above 100 µg/mL. Further, the MIC50 against C. albicans (ATCC 24433) was found to be 31.3 µg/mL (≈ 81.8 µM). The molecule also displayed an MIC50 against S. aureus (ATCC 29213) above 100 µg/mL.
In the case of `CC[C@H]1OC(=O)[C@H](C)[C@@H](O[C@H]2C[C@@](C)(OC)[C@@H](O)[C@H](C)O2)[C@H](C)[C@@H](O[C@@H]2O[C@H](C)C[C@H](N(C)C)[C@H]2O)[C@](C)(O)C[C@@H](C)CN(C)[C@H](C)[C@@H](O)[C@]1(C)O` [SD1, Azithromycin, reference compound], the MIC50 (in data set [2]; in the data set on E. faecalis (ATCC 2942); in data set [4]; in the data set on B. subtilis (ATCC 6051); in the data set with E. coli (ATCC 25922); against S. aureus (ATCC 29213)) was below 0.97 µg/mL in each case.
Take `C[C@@H](c1ncncc1F)[C@](O)(Cn1cncn1)c1ccc(F)cc1F` [SD2, Voriconazole, reference compound]: the MIC50 in data set [3] was 1.95 µg/mL (≈ 5.58 µM); with C. krusei (ATCC 6258) it was 3.9 µg/mL (≈ 11.2 µM); with C. albicans (ATCC 24433), 3.9 µg/mL (≈ 11.2 µM).
Consider `OC(Cn1cncn1)(Cn1cncn1)c1ccc(F)cc1F` [SD3, Fluconazole, reference compound], for which the MIC50 in [3] was found to be 3.9 µg/mL (≈ 12.7 µM); against C. krusei (ATCC 6258), 7.81 µg/mL (≈ 25.5 µM); against C. albicans (ATCC 24433), 7.81 µg/mL (≈ 25.5 µM).
